Several values for one entry are separate records, joined by “and”; a condition that tells them apart may be missing. Equal values may be shown once. Read-outs that look alike come from different tables or passages of the source.
Columns and labels:
β1i subunit of human iCP = β1i subunit of human iCP (Homo sapiens, UniProt P28065+P40306); experiment: IC50 determination with subunit-specific fluorogenic substrate Ac-PAL-AMC; details: for IC50: IC50 β1i
Description: (§1) The measurements of the residual activity of control compounds were carried out at final compound concentrations of 1 μM in the assay buffer (50 mM Tris-HCl, 0.5 mM ethylenediaminetetraacetic acid (EDTA), pH 7.4). Stock solutions of the compounds were prepared in DMSO. To the 35 μL of solution of the compound in the buffer, 35 μL of 0.4 nM human iCP (South Bay Bio, San Jose, CA, USA) or human cCP (Boston Biochem, Inc., Cambridge, MA, USA) was added. For assays evaluating the activity of β2c and β2i, the buffer was modified by adding the proteasomal activator PA28β (Boston Biochem, Inc., Cambridge, MA, USA) at a final concentration of 6 nM. […] The substrates used were acetyl-Nle-Pro-Nle-Asp-7-amino-4-methylcoumarin (Ac-nLPnLD-AMC, Bachem, Bubendorf, Switzerland) for β1c, acetyl-Pro-Ala-Leu-7-amino-4-methylcoumarin (Ac-PAL-AMC, Boston Biochem, Inc., Cambridge, MA, USA) for β1i, acetyl-Arg-Leu-Arg-7-amino-4-methylcoumarin (Ac-RLR-AMC, Bachem, Bubendorf, Switzerland) for β2c and β2i, acetyl-Trp-Leu-Ala-7-amino-4-methylcoumarin (Ac-WLA-AMC, Bachem, Bubendorf, Switzerland) for β5c, and acetyl-Ala-Asn-Trp-7-amino-4-methylcoumarin (Ac-ANW-AMC, Bachem, Bubendorf, Switzerland) for β5i. Progress of the reaction was measured using a BioTek Synergy HT microplate reader, monitoring fluorescence at 460 nm (excitation at 360 nm) for 60 min at 37 °C. The initial linear ranges were used to calculate the reaction velocity and determine the residual activity.
(§2) The final assay mixtures contained 0.4 nM human iCP or cCP in assay buffer (50 mM Tris-HCl, 0.5 mM EDTA, pH 7.4, addition of PA28β for β2c and β2i subunits). […] After incubation at 37 °C for 30 min, the reaction was initiated by the addition of the substrate Ac-nLPnLD-AMC for β1c, Ac-PAL-AMC for β1i, Ac-RLR-AMC for β2c and β2i, Ac-WLA-AMC for β5c, and Ac-ANW-AMC for β5i. Fluorescence was monitored at 460 nm (excitation at 360 nm) for 60 min at 37 °C. The reaction progress was recorded and the initial linear phases were used to determine the velocity. The IC50 values were calculated using GraphPad Prism software (GraphPad Software, San Diego, CA, USA), and the results represent the mean values of at least three independent determinations.

β5i subunit of human iCP = β5i subunit of human iCP (Homo sapiens, UniProt P20618+P28062); experiment: IC50 determination with fluorogenic substrate Ac-ANW-AMC; details: for IC50: IC50 β5i
Description: as §1, §2

β5c subunit of human cCP = target: T1, β5c subunit of human cCP (Homo sapiens, UniProt P20618+P28074); experiment: IC50 determination with fluorogenic substrate Ac-WLA-AMC; type: biochemical
T1 construct: purchased Boston Biochem, Inc
Description: as §1, §2

β2i subunit of human iCP = β2i subunit of human iCP (Homo sapiens, UniProt P40306+P49720); experiment: IC50 determination with fluorogenic substrate Ac-RLR-AMC (PA28β added)
Description: as §1, §2

β1c subunit of human cCP = target: T2, β1c subunit of human cCP (Homo sapiens, UniProt P28072+Q99436); experiment: IC50 determination with subunit-specific fluorogenic substrate Ac-nLPnLD-AMC; type: biochemical
T2 construct: purchased Boston Biochem, Inc
Description: as §1, §2

LPS-stimulated PBMCs = experiment: Cytokine secretion, Cytometric Bead Array; type: cell-based, human; details: 250 nM; 1 h pretreatment, LPS 1 μg/mL, 24 h; IL-1, IL-6, IL-8, IL-10, TNF-α
Description: PBMCs (1.5 × 10^6/mL) were plated in culture media in 96-well round-bottom plates. After a 60 min treatment with compounds at 37 °C and 5% CO2, cells were stimulated with LPS (Escherichia coli, O111:B4, 1 μg/mL, Sigma) for 24 h. Supernatants were then collected and analyzed for cytokine release by Human Inflammatory Cytokine Cytometric Bead Array (BD Biosciences, New Jersey, USA).

[1] = tested on: all subunits of the human cCP and iCP; experiment: Subunit inhibition profile and preference across cCP and iCP subunits; type: biochemical; details: for fold lower potency on the cCP counterparts of β1i and β5i: β1c, β5c vs β1i
Description: as §2

[2] = Solubility remark (exclusion from cell-based assays); type: physicochemical; details: reason for not using in cell-based assays
β2c subunit of human cCP = target: T3, β2c subunit of human cCP (Homo sapiens, UniProt P49720+Q99436); experiment: IC50 determination with fluorogenic substrate Ac-RLR-AMC (PA28β added); type: biochemical
T3 construct: purchased Boston Biochem, Inc
Description: Stock solutions of the compounds were prepared in DMSO. To the 35 μL of solution of the compound in the buffer, 35 μL of 0.4 nM human iCP (South Bay Bio, San Jose, CA, USA) or human cCP (Boston Biochem, Inc., Cambridge, MA, USA) was added. For assays evaluating the activity of β2c and β2i, the buffer was modified by adding the proteasomal activator PA28β (Boston Biochem, Inc., Cambridge, MA, USA) at a final concentration of 6 nM. […] The substrates used were acetyl-Nle-Pro-Nle-Asp-7-amino-4-methylcoumarin (Ac-nLPnLD-AMC, Bachem, Bubendorf, Switzerland) for β1c, acetyl-Pro-Ala-Leu-7-amino-4-methylcoumarin (Ac-PAL-AMC, Boston Biochem, Inc., Cambridge, MA, USA) for β1i, acetyl-Arg-Leu-Arg-7-amino-4-methylcoumarin (Ac-RLR-AMC, Bachem, Bubendorf, Switzerland) for β2c and β2i, acetyl-Trp-Leu-Ala-7-amino-4-methylcoumarin (Ac-WLA-AMC, Bachem, Bubendorf, Switzerland) for β5c, and acetyl-Ala-Asn-Trp-7-amino-4-methylcoumarin (Ac-ANW-AMC, Bachem, Bubendorf, Switzerland) for β5i. Progress of the reaction was measured using a BioTek Synergy HT microplate reader, monitoring fluorescence at 460 nm (excitation at 360 nm) for 60 min at 37 °C. The initial linear ranges were used to calculate the reaction velocity and determine the residual activity.
as §2

β2c = details: in parentheses in Table S2; SI reference list; read-out: IC50 β2c, previously published data; cited from earlier work
β5i = details: in parentheses in Table S2; SI reference list; read-out: IC50 β5i, previously published data; cited from earlier work
β1c = details: in parentheses in Table S2, SI reference list, cited from earlier work
β2i = details: in parentheses in Table S2; SI reference list; read-out: IC50 β2i, previously published data; cited from earlier work
β1i = details: in parentheses in Table S2; SI reference list; read-out: IC50 β1i, previously published data; cited from earlier work
β5c = details: in parentheses in Table S2; SI reference list; read-out: IC50 β5c, previously published data; cited from earlier work
[3] = human iCP, mean of at least three experiments, NA: not active at 50 μM
[4] = human cCP, mean of at least three experiments, NA: not active at 50 μM
[5] = read-out: IC50 β1c, previously published data

IC50 (β1i subunit of human iCP; [3]) [µM]	IC50 (β5i subunit of human iCP; [3]) [µM]	IC50 (β5c subunit of human cCP; [4]) [µM]	IC50 (β2i subunit of human iCP) [µM]	IC50 (β1c subunit of human cCP; [4]) [µM]	IC50 (β2c subunit of human cCP; [4]) [µM]	SMILES	other results
–	–	–	> 1	–	–	C[C@]1(C(=O)[C@H](Cc2ccccc2)NC(=O)[C@H](CO)NC(=O)c2cccc(=O)[nH]2)CO1 [KZR-504]	IC50 (β2c): > 250 µM; IC50 (β1i subunit of human iCP; own assay): 0.059 ± 0.011 µM; IC50 (β5c): 6.9 µM; IC50 (β5i): 4.3 µM; IC50 (β2i): > 250 µM; IC50 (β1i): 0.051 µM; IC50 (β2c subunit of human cCP; own assay): > 1 µM
–	–	–	0.338 ± 0.122	–	–	COc1ccc([C@@H](O)[C@H](NC(=O)[C@H](C)NC(=O)CN2CCOCC2)C(=O)N[C@@H](CC2=CCCC2)C(=O)[C@@]2(C)CO2)cc1 [KZR-616, (2S,3R)-N-((S)-3-(Cyclopent-1-En-1-Yl)-1-((R)-2-Methyloxiran-2-yl)-1-Oxopropan-2-yl)-3-Hydroxy-3-(4-Methoxyphenyl)-2-((S)-2-(2-Morpholinoacetamido)Propanamido)Propenamide, reference compound]	IC50 (β2c): 0.604 µM; IC50 (β1i subunit of human iCP; own assay): 0.096 ± 0.032 µM; IC50 (β5c): 0.688 µM; IC50 (β5i): 0.039 µM; IC50 (β1c subunit of human cCP; own assay): > 1 µM; Effect on secretion of cytokines in LPS-stimulated PBMCs (LPS-stimulated PBMCs): reduced the secretion of IL-1, IL-6, IL-8, IL-10, and TNF-α to a significant degree; IC50 (β5i subunit of human iCP; own assay): 0.026 ± 0.021 µM; IC50 (β1c; [5]): > 10.6 µM; IC50 (β2i): 0.623 µM; IC50 (β5c subunit of human cCP; own assay): 0.426 ± 0.048 µM; IC50 (β1i): 0.131 µM; IC50 (β2c subunit of human cCP; own assay): 0.403 ± 0.151 µM
–	–	–	> 1	–	–	CC(C)C[C@H](NC(=O)C(C)(C)NC(=O)c1ccccc1C(F)(F)F)B(O)O [ML604440, reference compound]	IC50 (β1i subunit of human iCP; own assay): 0.008 ± 0.005 µM; IC50 (β5c): > 1 µM; IC50 (β5i): > 1 µM; IC50 (β1c subunit of human cCP; own assay): > 1 µM; IC50 (β5i subunit of human iCP; own assay): > 1 µM; IC50 (β5c subunit of human cCP; own assay): > 1 µM; IC50 (β1i): ~0.0125 µM and 0.0125 µM; IC50 (β2c subunit of human cCP; own assay): > 1 µM

Second part, the compound before the results:

SMILES	IC50 (β1i subunit of human iCP; [3]) [µM]	IC50 (β5i subunit of human iCP; [3]) [µM]	IC50 (β5c subunit of human cCP; [4]) [µM]	IC50 (β2i subunit of human iCP) [µM]	IC50 (β1c subunit of human cCP; [4]) [µM]	IC50 (β2c subunit of human cCP; [4]) [µM]	other results
O=C(N[C@@H](Cc1ccccc1)C(=O)N[C@H](B(O)O)c1ccccc1)c1cnccn1 [5a, ((R)-Phenyl((S)-3-Phenyl-2-(pyrazine-2-carboxamido)propanamido)methyl)boronic Acid]	0.746	0.22	12.8	–	–	–	–
Cc1ccc([C@H](NC(=O)[C@H](Cc2ccccc2)NC(=O)c2cnccn2)B(O)O)cc1 [5b, ((R)-((S)-3-Phenyl-2-(pyrazine-2-carboxamido)propanamido)(p-tolyl)methyl)boronic Acid]	0.042	0.032	0.712	9.8	0.545	–	Effect on secretion of cytokines in LPS-stimulated PBMCs (LPS-stimulated PBMCs): significantly diminished ability to affect cytokine release; fold lower potency on the cCP counterparts of β1i and β5i [1]: 10–20 fold
O=C(N[C@@H](Cc1ccccc1)C(=O)N[C@H](B(O)O)c1ccc(F)cc1)c1cnccn1 [5c, ((R)-(4-Fluorophenyl)((S)-3-phenyl-2-(pyrazine-2-carboxamido)propanamido)methyl)boronic Acid]	0.038	0.032	0.225	–	0.526	–	Effect on secretion of cytokines in LPS-stimulated PBMCs (LPS-stimulated PBMCs): significantly diminished ability to affect cytokine release; fold lower potency on the cCP counterparts of β1i and β5i [1]: 10–20 fold
O=C(N[C@@H](Cc1ccccc1)C(=O)N[C@H](B(O)O)c1ccc(Cl)cc1)c1cnccn1 [5d, ((R)-(4-Chlorophenyl)((S)-3-phenyl-2-(pyrazine-2-carboxamido)propanamido)methyl)boronic Acid]	0.017	0.003	0.114	74.5	0.897	1.85	IC50 for β1i, fold lower than for β1c (β1i subunit of human iCP; β1i vs β1c): 50 fold; IC50 for β5i, fold lower than for β5c (β5i subunit of human iCP; β5i vs β5c): 30 fold; solubility [2]: limited solubility
COc1ccc([C@H](NC(=O)[C@H](Cc2ccccc2)NC(=O)c2cnccn2)B(O)O)cc1 [5e, ((R)-(4-Methoxyphenyl)((S)-3-phenyl-2-(pyrazine-2-carboxamido)propanamido)methyl)boronic Acid]	0.04	0.015	0.402	10.4	1.34	79	fold lower potency on the cCP counterparts of β1i and β5i [1]: 10–20 fold
CCOC(=O)c1cccc([C@H](NC(=O)[C@H](Cc2ccccc2)NC(=O)c2cnccn2)B(O)O)c1 [5f, ((R)-(3-(Ethoxycarbonyl)phenyl)((S)-3-phenyl-2-(pyrazine-2-carboxamido)propanamido)methyl)boronic Acid]	22.4	1.3	3.3	–	–	–	–
O=C(N[C@@H](Cc1ccccc1)C(=O)N[C@H](B(O)O)c1ccc2c(c1)OCO2)c1cnccn1 [5g, ((R)-Benzo[d][1,3]dioxol-5-yl((S)-3-phenyl-2-(pyrazine-2-carboxamido)propanamido)methyl)boronic Acid]	0.201	0.018	0.183	8.6	0.315	45	IC50 for β5i, fold lower than for β1i, β1c, and β5c (β5i subunit of human iCP): 10 fold
O=C(N[C@@H](Cc1ccccc1)C(=O)N[C@H](B(O)O)c1ccc(-c2ccccc2)cc1)c1cnccn1 [5h, ((R)-[1,1′-Biphenyl]-4-yl((S)-3-phenyl-2-(pyrazine-2-carboxamido)propanamido)methyl)boronic Acid]	0.27	0.024	0.012	0.26	1.31	–	IC50 (β1c subunit of human cCP; own assay): > 1 µM; solubility [2]: limited solubility; IC50 for both β5 subunits, fold better than IC50 for β1i [1]: 10–20 fold; IC50 β2c (β2c subunit of human cCP; [4]): no detectable inhibition
O=C(N[C@@H](Cc1ccccc1)C(=O)N[C@@H](Cc1ccccc1)B(O)O)c1cnccn1 [5i, ((R)-2-Phenyl-1-((S)-3-phenyl-2-(pyrazine-2-carboxamido)propanamido)ethyl)boronic Acid]	0.054	0.017	0.054	3.4	0.235	4.9	–
CC[C@H](NC(=O)[C@H](Cc1ccccc1)NC(=O)c1cnccn1)B(O)O [5j, ((R)-1-((S)-3-phenyl-2-(pyrazine-2-carboxamido)propanamido)propyl)boronic Acid]	0.002	0.019	0.011	1.28	0.021	3.4	–
O=C(N[C@@H](Cc1ccccc1)C(=O)N[C@H](B(O)O)C1CC1)c1cnccn1 [5k, ((R)-Cyclopropyl((S)-3-phenyl-2-(pyrazine-2-carboxamido)propanamido)methyl)boronic Acid]	0.172	0.009	0.005	0.499	0.827	0.44	fold lower potency on β1c and β1i ([1]; compared with bortezomib): approximately 80 fold
CC(C)(C)ONC(=O)C[C@H](NC(=O)CCc1ccccc1)C(=O)N[C@@H](Cc1ccc(F)cc1)C(=O)NCc1cccc2ccccc12 [DPLG3]	–	–	–	–	–	–	IC50 (β2c): > 33.3 µM; IC50 (β1i subunit of human iCP; own assay): > 1 µM; IC50 (β5i): 0.0045 µM; IC50 (β1c; [5]): > 33.3 µM; IC50 (β2i): > 33.3 µM; IC50 (β1i): > 33.3 µM
COc1ccc(C[C@H](NC(=O)[C@H](C)NC(=O)CN2CCOCC2)C(=O)N[C@@H](CC2CCCC3CCCCC32)C(=O)[C@@]2(C)CO2)cc1 (stereo partly shown) [Lu-002i]	–	–	–	–	–	–	IC50 (β5c): > 100 µM; IC50 (β5i): > 100 µM; IC50 (β1c; [5]): > 100 µM; IC50 (β1i): > 100 µM
COc1ccc(C[C@H](NC(=O)[C@H](C)NC(=O)CN2CCOCC2)C(=O)N[C@@H](Cc2ccccc2)C(=O)[C@@]2(C)CO2)cc1 [ONX-0914]	–	–	–	–	–	–	IC50 (β2c): 1.1 µM; IC50 (β5c): 0.054 µM; Effect on secretion of cytokines in LPS-stimulated PBMCs (LPS-stimulated PBMCs): Very similar result; IC50 (β1c; [5]): > 10 µM
CC(C)C[C@H](NC(=O)[C@H](CCc1ccccc1)NC(=O)CN1CCOCC1)C(=O)N[C@@H](Cc1ccccc1)C(=O)N[C@@H](CC(C)C)C(=O)[C@@]1(C)CO1 [carfilzomib]	–	–	–	–	–	–	IC50 (β1c; read-out: IC50 β1c, literature data): 0.013 µM

From article PMC12751025, “α‑Aminoboronic Acid Moieties in Boro Dipeptides Modulate Proteasome Subunit Selectivity and Provide Access to Compounds with Potent Anticancer and Anti-Inflammatory Activity” (Journal of Medicinal Chemistry, 2025)
